# System: murine islets
# Experiment: Synchronization of GSIS from grouped islets by periodic CCh pulses
# Type: cell-based
# Conditions: 5 islets, constant 11 mM glucose, 30 s every 5 min
# Method: CCh, an M3R agonist, synchronizes glucose-induced islet activity as measured by synchronized oscillations of [Ca^2+]i levels. Because no recording of insulin release has been reported after delivery of CCh pulses, synchronized hormone secretion had not previously been verified. Using the newly-developed anisotropy method, it was tested whether GSIS from grouped islets can be entrained during periodic application of CCh.
# For this experiment, reagent reservoirs connected to inlets 1 and 2 contained 11 mM glucose and 10 μM CCh in 11 mM glucose, respectively. A group of 5 islets were loaded into the islet chamber that had been filled with 11 mM glucose. After sealing the chamber, islets were continuously perfused with constant 11 mM glucose from inlet 1. CCh pulses were generated by switching the flow from inlet 1 to inlet 2. Pulse profiles consisted of 5 pulses (denoted by ‘x’ in FIG. 10A and FIG. 10B) each delivered for 30 s every 5 min. Considering broadening of each pulse (FIG. 3C), islets were exposed to an effective [CCh] of 4.7 μM.
# In FIG. 10A and FIG. 10B, the glucose level remained constant at 11 mM. In the islet chamber during each experiment were 5 islets. In FIG. 10A, GSIS was synchronized by a train of 5 CCh pulses. Each 30 second pulse, ‘x’, was delivered every 5 minutes from 5 to 25 minutes. Numbered insulin peaks highlight oscillations likely stimulated by a CCh pulse. […]
smiles,measurement,setting,value
"C[N+](C)(C)CCOC(N)=O [CCh, carbachol]","insulin spikes after CCh pulses, average of final 3 spikes",5 pulses of 10 μM CCh (effective 4.7 μM),78±12 pg min^−1 islet^−1
same,synchronization of GSIS,train of 5 CCh pulses,synchronized

# From patent publication US20210341496A1, “Systems and Methods for Detecting or Monitoring Insulin” (The Florida State University Research Foundation, Inc., priority 2020, published 2021)
